Experimental data from patent publication US8956645B2, “Water-soluble pharmaceutical composition comprising at least one therapeutically active substance having hydrophobic properties and at least one compound selected from among sialoglycosphingolipids, glycosphingolipids or a mixture of sialoglycosphingolipids and glycosphingolipids” (Consejo Nacional de Investigaciones Cientificas y Tecnicas …, priority 2010, dated 2015).

Experiments:
VERO and MA cells = assay: Cell viability by MTT assay, non-tumoral cells; assay type: cell-based; conditions: 24 hours
Method: FIG. 6: VERO and MA cells of non tumoral origin were incubated with increasing concentrations of: a)-( ? ) Ptx in DMSO, b)-( ? ) micelles of Ptx-GM1 1/25, c)-( ? ) micelles of GM1 and d)-( ? ) micelles of the albumine-Ptx-GM1 complex. Cellular viability was evaluated using MTT assay marker after 24 hs incubation.
(§1) Different cell types, tumoral such as HEP-2 and Hela, and non-tumoral as VERO and MA were incubated in MEM medium containing 2% fetal bovine serum (Natocor-Villa Carlos Paz—Córdoba—Argentina) in a CO2 incubator with 5% CO2, to confluence. Different concentrations of the compositions mentioned below were added to the cell culture: […]
(§2) a)—Ptx in DMSO as positive control b)—Ptx-GM1 micelles 1/25 molar ratio c)—GM1 micelles in equal concentrations as in b), to control the effect of the GM1 itself, and d)—micelles of the albumin-Ptx-GM1 complex
(§3) Cell viability was evaluated by MTT assay after 24 hours of incubation.

HEP-2 and Hela cells = assay: Cell viability by MTT assay, tumoral cells; assay type: cell-based; conditions: 24 hours
Method: FIG. 7: HEP-2 and HELA cells of tumor origin were incubated with increasing concentrations of: a)-( ? ) Ptx in DMSO, b)-( ? ) Ptx-GM1 micelles 1/25, c)-( ? ) GM1 micelles and d)-( ? ) micelles of the GM1-Ptx-albumine complex. Cellular viability was evaluated using MTT assay after 24 hs incubation.
as §1, §2, §3

CC(=O)O[C@H]1C(=O)[C@@]2(C)[C@H]([C@H](OC(=O)c3ccccc3)[C@]3(O)C[C@H](OC(=O)[C@H](O)[C@@H](NC(=O)c4ccccc4)c4ccccc4)C(C)=C1C3(C)C)[C@]1(OC(C)=O)CO[C@@H]1C[C@@H]2O [Ptx, paclitaxel]
concentration producing complete death (VERO and MA cells): 100 ng/mL
concentration producing complete death (HEP-2 and Hela cells): 10 ng/mL
